In PubChem BioAssay (NCI):
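Exposure lasted 48 hours, with cells grown in 96-well plates and compounds tested at five concentrations. Definition used: TGI = concentration required for complete inhibition of growth.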

What was measured:
Test in all cases: NCI tumour cell line growth inhibition, 48 h
[1] = tested on: SNB-19 CNS
[2] = tested on: HOP-92 NSCLC
[3] = tested on: ACHN renal
[4] = tested on: UO-31 renal
[5] = tested on: UACC-257 melanoma
[6] = tested on: SK-MEL-5 melanoma
[7] = tested on: A549 NSCLC
[8] = tested on: HT29 colon
[9] = tested on: HL-60(TB) leukemia
[10] = tested on: UACC-62 melanoma
[11] = tested on: SF-539 CNS
[12] = tested on: LOX IMVI melanoma
[13] = tested on: COLO 205 colon
[14] = tested on: 786-0 renal
[15] = tested on: TK-10 renal
[16] = tested on: RPMI-8226 leukemia
[17] = tested on: MALME-3M melanoma
[18] = tested on: OVCAR-8 ovarian
[19] = tested on: SF-295 CNS
[20] = tested on: CAKI-1 renal
[21] = tested on: M14 melanoma
[22] = tested on: A498 renal
[23] = tested on: U251 CNS
[24] = tested on: NCI-H226 lung
[25] = tested on: M19-MEL melanoma
[26] = tested on: SW-620 colon
[27] = tested on: KM20L2 colon
[28] = tested on: RXF-631 renal
[29] = tested on: SK-OV-3 ovarian
[30] = tested on: OVCAR-5 ovarian
[31] = tested on: SN12C renal
[32] = tested on: HCT-116 colon
[33] = tested on: HCC-2998 colon
[34] = tested on: HOP-18 NSCLC
[35] = tested on: OVCAR-3 ovarian
[36] = tested on: HCT-15 colon
[37] = tested on: LXFL 529 NSCLC
[38] = tested on: SK-MEL-2 melanoma
[39] = tested on: SNB-75 CNS
[40] = tested on: DLD-1 colon
[41] = tested on: OVCAR-4 ovarian
[42] = tested on: IGROV1 ovarian
[43] = tested on: DMS 273 small cell lung
[44] = tested on: NCI-H460 lung
[45] = tested on: EKVX NSCLC
[46] = tested on: SNB-78 CNS
[47] = tested on: NCI-H23 lung
[48] = tested on: HOP-62 NSCLC
[49] = tested on: SK-MEL-28 melanoma
[50] = tested on: K-562 leukemia
[51] = tested on: SF-268 CNS
[52] = tested on: CCRF-CEM leukemia
[53] = tested on: SR leukemia
[54] = tested on: KM12 colon
[55] = tested on: MOLT-4 leukemia
[56] = tested on: MCF7 breast
[57] = tested on: NCI-H522 lung
[58] = tested on: XF 498 CNS
[59] = tested on: P388 leukemia
[60] = tested on: SN12K1 renal
[61] = tested on: NCI/ADR-RES ovarian
[62] = tested on: P388/ADR leukemia
[63] = tested on: DMS 114 small cell lung
[64] = tested on: RXF 393 renal

Measured: TGI

O=C1C(=O)N(c2ccc(Cl)cc2)C(=O)C(=Nc2cccc3c(=O)[nH][nH]c(=O)c23)C1c1nc2ccccc2o1 (stereo not given)
not listed: [56] | [57] | [58] | [59] | [60] | [61] | [62] | [63] | [64]
> 100 µM: all other assays above

Cc1ccc(C(=O)Nc2ncn(C3CC(O)C(CO)O3)c(=O)n2)cc1 (stereo not given)
> 56.5 µM: [35]
29.5 µM: [62]
97.3 µM: [55]
not listed: [3] | [9] | [14] | [15] | [21] | [27] | [28] | [37] | [53]
> 100 µM: all other assays above
